Several values for one entry are separate records, joined by “and”; a condition that tells them apart may be missing. Equal entries are not always repeated.
Tests used:
[1] = system: male Wistar rats; test: Sperm motility in asthenospermia simulated with Etoposide; format: in vivo, rat; conditions: for percentage of motile sperm cells: Treamid 5.0 mg/kg for 10 days after administration of Etoposide; for The number of motile sperm cells (in %): 5 days before and 5 days after Etoposide (preventive course), Treamid 5.0 mg/kg
Description: The use of the drug that induces an increase in the free radical level was due to the fact that according to modern ideas, the direct cause of asthenospermia is oxidative stress (Kao S. H. et. al. Increase of oxidativestress in human sperm with lower motility. Fertil. and Steril. 2008; 89: 5: 1183-1190).
The experiments were performed on 50 male Wistar rats (3 months of age). Etoposide was administered once intravenously at the maximum tolerated dose of 30 mg/kg.
The effectiveness of Treamid was assessed by the percentage of motile sperm forms isolated from the epididymis.
In the first series, the results of the studies were compared with those obtained for administration of the reference drug, Speman, that was administered intragastrically at a dose of 140 mg/kg.

[2] = system: male Wistar rats; test: Sexual incentive motivation test, rats of late reproductive age; format: in vivo, rat
Description: Erectile dysfunction was simulated by using animals of late and senile reproductive age (14-19 months). Suppression of sexual motivation was simulated by using animals of late reproductive age (14 months).
Experiments on studying the effect of Treamid on sexual motivation were carried out on 40 male Wistar rats (14 months of age). A model for a targeted search for novel agents for the therapy of this pathology was used as an experimental model of sexual incentive motivation in rats [Xi Chu, Ekaterina S. Zhavbert, Julia L. Dugina, Irina A. Kheyfets, Svetlana A. Sergeeva, Oleg I. Epstein, Anders Agmo Sindenafil and a compound stimulating endothelial NO synthase modity sexual incentive motivation and copulatory behavior in male wistar and fisher 344//J Sex Med.—2008.—5.—P. 2085-2009]. This model is based on the fact that rats are social animals and seek not only sexual, but also social contacts. The assessment of sexual motivation involves determining the time spent near a sexual stimulus and the score of preference in animals without direct contact with “social” and “sexual” stimuli. The sexual stimulus was a female rat in estrus stage, and the social stimulus was a male rat.

[3] = system: male CBA/CaLac mice; test: Chronic toxic hepatitis model (CCl4), liver histology; format: in vivo, mouse; conditions: Day 28; Treamid 10 mg/kg intragastrically Day 14-27
Description: Chronic toxic hepatitis was induced in the male CBA/CaLac mice by intragastric administration of a 20% carbon tetrachloride (CCl4) solution in olive oil in a volume of 0.2 ml/mouse on Days 0, 3, 7, 10, 14, and 17 of the study. Treamid was administered at a dose of 10 mg/kg intragastrically once daily, every day from Day 14 to Day 27 of the study. On day 28, the animals were euthanized in a CO2 chamber and a liver biopsy sample was taken for histological analysis.
For histological examination, the liver was fixed in a 10% neutral formalin solution and then poured into paraffin by the standard method. Deparaffined sections of a thickness of 5 μm were stained: 1) with hematoxylin and eosin according to the standard procedure for routine histological examination; and 2) with picrofuxin for the calculation of the area of connective tissue, using a graphic data processing software.

[4] = system: female C57Bl/6 mice; test: Elastase-induced pulmonary emphysema model; format: in vivo, mouse
Description: Pulmonary emphysema was induced in female C57Bl/6 mice by a single intratracheal administration of elastase (Sigma, USA) at a dose of 0.6 U/mouse in 30 μl of 0.9% NaCl [Lüthje L., Raupach T., Michels H. et al.//Respiratory Research 2009, 10: 7]. The day of operation was taken as Day 0 of the experiment. Treamid was administered at a dose of 10 mg/kg intragastrically once daily, every day from Day 7 to Day 60 of the study. On Days 7, 14, 30 and 60, the animals were euthanized in a CO2 chamber, and their lungs were isolated.
The dynamics and severity of the developed emphysema in the lung tissue were assessed on histological preparations. For this, the lungs were fixed in a 10% neutral formalin solution and then poured into paraffin by the standard method. The preparations of the lung apex, middle lung field, and lower lung field of a thickness of 5 μm were prepared from the deparaffined sections, and stained with hematoxylin and eosin by the standard procedure. Further, photographs of the lung apex, middle lung field, and lower lung field were made, and the localization and area of emphysema were studied by using graphics processing software. The area of emphysematously enlarged lung tissue (% of normal tissue) was measured as an estimated score of the development of emphysema, and blood vessels and bronchi were excluded from the calculations [ArrateMunoz-Barrutia, Mario Ceresa, Xabier Artaechevarria, Luis M. Montuenga, and Carlos Ortiz-de-Solorzano. Quantification of Lung Damage in an Elastase-Induced Mouse Model of Emphysema//International Journal of Biomedical Imaging. Volume 2012, Article ID 734734, 11 pages; Susumu Sato, Erzsebet Bartoldk-Suki, Harikrishnan Parameswaran, Hiroshi Hamakawal and Bela Suki. Scale dependence of structure-function relationship in the emphysematous mouse lung//Front. Physiol. 6:146. doi: 10.3389/fphys. 2015.00146].

[5] = 14-month rats, Second test, after administration of the test compound, Treamid 5 mg/kg, Sildenafil 3 mg/kg, 14 days
[6] = 14-month rats, first test, before administration
[7] = Day 7, Treamid 10 mg/kg intragastrically from Day 7

## O=C(CCCC(=O)NCCc1ncc[nH]1)NCCc1ncc[nH]1 [Treamid]
[1]; group M ± m
  percentage of motile sperm cells: 71.01 ± 1.80 %
[1]; group X ± m, Speman 140 mg/kg
  The number of motile sperm cells (in %): 79.83 ± 1.88#*⋄ %
[1]; individual animals, Speman 140 mg/kg intragastrically
  The number of motile sperm cells (in %): 77.42% and 79.09% and 82.72% and 74.67% and 85.26%
[1]; individual males
  percentage of motile sperm cells: 74.55% and 69.44% and 70.20% and 65.52% and 75.34%
[2]; [5]
  A, sec (time spent in the sexual stimulus zone): 154.00 ± 41.83#⋄ sec
  B, sex (time spent in the social stimulus zone): 95.60 ± 29.66 s
  PS, s. u. (preference score): 0.64±0.09 s. u. and 0.64 ± 0.09⋄ s. u.
[2]; 14-month rats, Treamid 5 mg/kg, Sildenafil 3 mg/kg
  effect on sexual motivation: has a stimulating effect
[2]; [6]
  A, sec (time spent in the sexual stimulus zone): 132.30 ± 23.69 s
  B, sec (time spent in the social stimulus zone): 113.60 ± 13.77 s
  PS, s. u. (preference score): 0.51 ± 0.06 s. u.
[2]; Treamid 5 mg/kg, second test
  decrease of time spent in the social stimulus zone compared with the control: 2 times
[3]
  content of connective tissue in the liver compared to the pathological control: markedly reduced
  histological pattern of the liver: did not differ from that of the intact control
[4]; [7]
  The area of emphysematously enlarged lung tissue (% of normal), Lower lung field: 41.3 ± 1.82 % of normal
  The area of emphysematously enlarged lung tissue (% of normal), Lung apex: 0.9 ± 0.12*• % of normal
  The area of emphysematously enlarged lung tissue (% of normal), Middle lung field: 5.4 ± 0.55 % of normal
[4]; Day 14, Treamid 10 mg/kg
  The area of emphysematously enlarged lung tissue (% of normal), Lower lung field: 42.6 ± 1.79*• % of normal
  The area of emphysematously enlarged lung tissue (% of normal), Lung apex: 0.7 ± 0.09*• % of normal
  The area of emphysematously enlarged lung tissue (% of normal), Middle lung field: 29.03 ± 1.76 % of normal
[4]; Day 30, Treamid 10 mg/kg
  The area of emphysematously enlarged lung tissue (% of normal), Lower lung field: 32.8 ± 3.78*• % of normal
  The area of emphysematously enlarged lung tissue (% of normal), Lung apex: 2.4 ± 1.6*• % of normal
  The area of emphysematously enlarged lung tissue (% of normal), Middle lung field: 18.5 ± 2.91 % of normal
[4]; Day 60, Treamid 10 mg/kg
  The area of emphysematously enlarged lung tissue (% of normal), Lower lung field: 40.0 ± 3.57*• % of normal
  The area of emphysematously enlarged lung tissue (% of normal), Lung apex: 3.6 ± 0.26*• % of normal
  The area of emphysematously enlarged lung tissue (% of normal), Middle lung field: 24.9 ± 3.11 % of normal

Source: patent US10076511B2, “Bisamide derivative of dicarboxylic acid as an agent for stimulating tissue regeneration and recovery of diminished tissue function” (TREAMID GmbH, priority 2015, dated 2018)
